Assays:
Type in all cases: cell-based, Human
p53 = test: H2O2 stress-induced premature senescence in epidermal keratinocytes, p53 expression (ELISA); conditions: 1% treatment level, after 150 μM H2O2 for two hours, FIG. 3
Description: (§1) Human epidermal keratinocytes were seeded into culture flasks and grown at 37±2° C. and 5±1% CO2 using serum free Epilife media supplemented as recommended by the manufacturer. When a sufficient number of cells had been grown they were transferred to 96-well plates and cultured for a minimum of 24 hours to allow the cells to adhere to the well plates. After the initial 24-hour incubation, the media was changed to remove any non-adherent cells and the remaining cells were cultured until confluent, with a media change every 48 to 72 hours as needed.
(§2) Premature cellular senescence was induced by treating the keratinocytes with H2O2. For the H2O2 treatment, the cell culture media was replaced with phosphate buffered saline (PBS) supplemented with 150 μM of H2O2 . The cells were incubated in the H2O2 solution for two hours, after which they were washed once with PBS and then fresh media, either with or without test material, was applied to the cells. At these levels, the H2O2 treatment was not observed to have an impact on cell viability.
(§3) Relative changes in the amount of ATM and p53 expression were determined in the keratinocytes using ELISA based methods. […] After a sufficient level of color development was achieved the plate was read at 460 nm using a plate reader.

[1] = test system: intrinsically-aged dermal fibroblasts; test: Delayed senescence in intrinsically-aged dermal fibroblasts measured by SA-β-Gal staining; conditions: for expression of SA-β-Gal (number of stained cells) vs untreated cells: after 18 population doublings, FIG. 1
Description: The peptide isolated from Example 2 was employed to examine the ability of the peptide to delay senescence in dermal fibroblasts aged through a series of population doublings.
Human neonatal fibroblasts were obtained after primary culture (passage 1) and seeded into a set of T-75 flasks in 3 ml/flask of Fibroblast Growth Media (FGM) and grown at 37±2° C. and 5±1% CO2. The cells were expanded through 6 passages (one passage was defined as growing the cells until the flask was confluent and then splitting the cells 1:2, thus one passage was roughly equal to one population doubling). After the 6th passage, the fibroblasts were split into different treatment groups and treated with the various test materials through passage 18. At passage 18 a portion of the fibroblasts were used to assay changes in Senescence Associated-β-Galactosidase (SA-β-Gal), while the remaining fibroblasts were cultured for an additional week (approximately 2 additional passages) in the absence of test materials.
Prior to staining, the fibroblasts were washed once with PBS and then fixed for approximately 6 minutes in fixing solution (2% formaldehyde and 0.2% glutaraldehyde in PBS). After fixing, the cells were washed three times with PBS, followed by the addition of the staining solution (150 mM NaCl, 2 mM MgCl2, 40 mM citric acid (pH 6.0), 12 mM NaPO3, 5 mM potassium ferrocyanide, 5 mM potassium ferricyanide, and […] X-gal). The cells were then incubated at 37° C. overnight in a non-CO2 incubator. On the following day the staining solution was removed and replaced with PBS. The cells were then photographed microscopically and the number of stained cells (SA-β-Gal positive) in each field was counted.

dermal papillae cells = test: UV stress-induced premature senescence in dermal papillae cells measured by SA-β-Gal staining; conditions: 20 mJ/cm^2 UVB, 48 hours, FIG. 4
Description: Human dermal papillae cells were seeded into 12 well plates in Dermal Papillae Growth Medium (DPGM) and grown at 37±2° C. and 5±1% CO2 until confluent with a media change every 48 to 72 hours as needed. Once the cells were confluent, the cell culture media was replaced with PBS and the cells were irradiated with 20 mJ/cm^2 UVB. After the UVB irradiation, the PBS was removed and replaced with cell culture media supplemented with the various test materials. Non-supplemented DPGM was used as the untreated control. One set of cells was not exposed to UVB and served as the non-UVB treated control. After the addition of the media, sets of cells were cultured for 48 hours. At the end of the incubation period the cells were obtained and assayed for changes in SA-β-Gal activity.
In a second set of studies, dermal papillae cells were grown and plated as described above. […] This was done to determine the effects of the test materials alone on the markers measured in this study.
After the 48 hour incubation, the cells were washed with PBS and then briefly fixed for 6-7 minutes in fixation buffer (2% formaldehyde and 0.2% glutaraldehyde in PBS). […] On the following day, the wells were examined microscopically and photographed so that the number of stained cells per field could be quantified. The number of positive staining cells in each field was counted. […]

Ogg1 = test: Cellular expression of DNA repair enzyme Ogg1 in fibroblasts (microfiltration blot, immunodetection); conditions: treatment level 0.1%, 24 hours, FIG. 5
Description: Human fibroblasts were seeded into culture flasks and grown at 37±2° C. and 5±1% CO2 using FGM. When a sufficient number of cells had been grown they were transferred to 24-well plates and cultured for a minimum of 24 hours to allow the cells to adhere to the well plates. The cells were then grown until confluent, with a media change every 48 to 72 hours.
The test materials were prepared in FGM. The media was then removed from the culture plates and replaced with 0.5 ml of media supplemented with test material, with each treatment being tested in triplicate. FGM alone served as the untreated control. After the application of the cell culture media, the plates were incubated for 24 hours at 37±2° C. and 5±1% CO2. At the end of the incubation period the culture media was removed and the cells were washed once with phosphate buffered saline. […] The protein concentration of the supernatant was determined using the BCA Protein Assay. […]
After the final wash, the membrane was placed into a BioRad Molecular Imager FX and scanned using an excitation laser and emission filter combination appropriate for the fluorophore. Images produced by the scanner were then analyzed using ImageJ image analysis software.
Fluorescence intensity measurements were expressed in Relative Fluorescence Units (RFU). Mean RFU values for each treatment were then calculated and treatments were compared using a one way ANOVA.

ATM = test: H2O2 stress-induced premature senescence in epidermal keratinocytes, ATM expression (ELISA); conditions: 1% treatment level, after 150 μM H2O2 for two hours, FIG. 2
Description: as §1, §2, §3

## CN[C@@H](Cc1ccccc1)C(=O)N[C@H](C(=O)N[C@@H](C)C(=O)N1CCC[C@H]1C(=O)N[C@@H](Cc1ccccc1)C(=O)N1CCC[C@H]1C(=O)O)C(C)C [Hexapeptide, Phe-Val-Ala-Pro-Phe-Pro]
p53
  expression of p53 protein vs prematurely senescent untreated keratinocytes: statistically delay senescence
[1]; 0.5% Hexapeptide treatment
  expression of SA-β-Gal (number of stained cells) vs untreated cells: untreated cells was statistically higher than that seen at 0.5 or 1.0% Hexapeptide treatment
[1]; 1.0% Hexapeptide treatment
  expression of SA-β-Gal (number of stained cells) vs untreated cells: untreated cells was statistically higher than that seen at 0.5 or 1.0% Hexapeptide treatment
[1]; 1% treatment
  expression of SA-β-Gal one week after removal of the Hexapeptide: increase but not yet back to normal
[1]; all treatments except the 1% treatment
  expression of SA-β-Gal one week after removal of the Hexapeptide: returns to normal
Dermal papillae cells; 0.5% Hexapeptide
  SA-β-Gal expression (number of stained cells) after UV: statistically significant decrease
Dermal papillae cells; 1.0% Hexapeptide
  SA-β-Gal expression (number of stained cells) after UV: statistically significant decrease
Ogg1
  expression of Ogg1 (RFU) vs untreated control: statistically increase expression of Ogg1
ATM
  expression of ATM protein vs prematurely senescent untreated keratinocytes: statistically delay senescence

— patent publication US20110052676A1, “Composition For Delaying Cellular Senescence” (priority 2009, published 2011)
